Our source for the IC50 values is BindingDB's records for patent USRE47493 (Boehringer Ingelheim International, 2019).

The target of the assay is T1, Neutrophil elastase (Homo sapiens, UniProt P08246).
T1 sequence (P08246 whole entry): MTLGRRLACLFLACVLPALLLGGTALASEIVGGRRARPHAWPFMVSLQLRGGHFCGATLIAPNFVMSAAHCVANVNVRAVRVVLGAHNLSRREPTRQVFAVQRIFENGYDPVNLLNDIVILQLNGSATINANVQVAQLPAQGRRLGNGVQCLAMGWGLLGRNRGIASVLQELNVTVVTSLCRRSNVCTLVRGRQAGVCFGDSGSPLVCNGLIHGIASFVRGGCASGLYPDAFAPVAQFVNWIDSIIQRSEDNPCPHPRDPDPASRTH
The assay is described as follows: Enzyme Inhibition Assay. As to the method:
All other materials were of the highest grade commercially available.The following buffers were used: Compound buffer: 100 mM Tris, 500 mM NaCl, adjusted to pH 7.5; Assay buffer: 100 mM Tris, 500 mM NaCl, adjusted to pH 7.5, containing 0.01% BSA.Assay conditions: Test compounds were prediluted in DMSO and subsequently in compound buffer (5% DMSO final). […] After inactivation of the enzyme, fluorescence intensities were measured at 380 nm excitation and 460 nm emission wavelengths.

The IC50 is the concentration that gives 50% inhibition. Read a low IC50 as greater potency. In turn, `N#Cc1ccc(C2C3=C(CCCC3=O)N(c3cccc(C(F)(F)F)c3)C(=O)N2C(=O)NC2CCC[C@@H]2O)cc1` (some centres not stated) [USRE47493, Example 70.12] gave an IC50 below 1 nM.

Turning to `N#Cc1ccc(C2C3=C(CCCC3=O)N(c3cccc(C(F)(F)F)c3)C(=O)N2C(=O)NC2CCCC[C@@H]2O)cc1` (some centres not stated) [USRE47493, Example 70.17], the IC50 came out at 1.1 nM. This counts as single-digit nanomolar.
